Measured values as given in patent US11213577B2, “Treatment of cancer using recall antigens delivered by attenuated bacteria” (ALBERT EINSTEIN COLLEGE OF MEDICINE, INC., priority 2015, dated 2022).

Assays:
[1] = tested on: CD4 and CD8 T cells; assay: CD4 and CD8 T cell responses in spleens of Panc-02 mice by flow cytometry; assay type: in vivo; conditions: spleens of 3 mice pooled
[2] = tested on: CD4 and CD8 T cells; assay: CD4 and CD8 T cell responses in spleen of KPC mice by flow cytometry; assay type: in vivo
[3] = tested on: MDSC (CD11b+Gr1+); assay: Analysis of MDSC (CD11b+Gr1+) in blood of Panc-02 mice by flow cytometry; assay type: in vivo
Protocol: (§1) FIG. 7A-7B. […] C57B16 mice were challenged with Panc-02 tumor cells and treated with Listeria-TT+GEM as described in FIG. 7A. Two days after the last treatment the percentage of MDSC (CD11b+Gr1+) was determined in blood by flow cytometry. N=5 mice per group. Representative of two experiments. […] C57B16 mice were challenged with Panc-02 tumor cells and treated with Listeria-TT+GEM as described in FIG. 7A. Two days after the last treatment the percentage of TAM (CD11b+F4/80+) was determined in the primary tumors by flow cytometry. N=5 mice per group. Representative of two experiments. The error bars represent SEM.
(§2) Panc-02 mice with advanced pancreatic cancer were treated with one high and multiple low doses of Listeria-TT (LM-TT) and GEM as described in FIG. 7A. MDSC and TAM were analyzed in the metastases by flow cytometry. Metastases of 3 mice were pooled. This experiment was performed once.

[4] = tested on: TAM (CD11b+F4/80+); assay: Analysis of TAM (CD11b+F4/80+) in metastases of Panc-02 mice by flow cytometry; assay type: in vivo
Protocol: as §1, §2

[5] = tested on: CD8 T cells; assay: CD8 T cell responses to immunodominant TT epitope after immunization; assay type: in vivo, BALB/cByJ mice; conditions: three immunizations with TT856-1313 protein and CpG, blood, restimulated with […]
[6] = TAM in metastases, 3 mice pooled

Nc1ccn([C@@H]2O[C@H](CO)[C@@H](O)C2(F)F)c(=O)n1 [GEM, gemcitabine]
CD3CD4CD69 [1]: 14.2 Percentage | CD3CD4Granzyme B [1]: 4.8 Percentage | CD3CD4IFNγ [1]: 2.7 Percentage | CD3CD4Perforin [1]: 14.9 Percentage | CD3CD8CD69 [1]: 15.5 Percentage | CD3CD8Granzyme B [1]: 1.1 Percentage | CD3CD8IFNγ [1]: 0.4 Percentage | CD3CD8Perforin [1]: 4.8 Percentage | CD3CD4CD69 [2]: 10.01 Percentage | CD3CD4Granzyme B [2]: 3.5 Percentage | CD3CD4IFNγ [2]: 0.0 Percentage | CD3CD4Perforin [2]: 7.90 Percentage | CD3CD8CD69 [2]: 17.5 Percentage | CD3CD8Granzyme B [2]: 9.71 Percentage | CD3CD8IFNγ [2]: 1.7 Percentage | CD3CD8Perforin [2]: 15.60 Percentage | CD80, Percentage of MDSC (CD11b+Gr1+) in Blood ([3]; MDSC in blood): 1.78 Percentage | IL-6, Percentage of MDSC (CD11b+Gr1+) in Blood ([3]; MDSC in blood): 3.59 Percentage | IL-10, Percentage of MDSC (CD11b+Gr1+) in Blood ([3]; MDSC in blood): 2.76 Percentage | MARCO, Percentage of MDSC (CD11b+Gr1+) in Blood ([3]; MDSC in blood): 3.84 Percentage | TNFα, Percentage of MDSC (CD11b+Gr1+) in Blood ([3]; MDSC in blood): 8.49 Percentage | MDSC population in blood ([3]; two days after last treatment): reduces the MDSC population | CD80, Percentage of TAM (CD11b+F4/80+) in Metastases [4, 6]: 4.28 Percentage | IL-6, Percentage of TAM (CD11b+F4/80+) in Metastases [4, 6]: 1.25 Percentage | IL-10, Percentage of TAM (CD11b+F4/80+) in Metastases [4, 6]: 1.47 Percentage | MARCO, Percentage of TAM (CD11b+F4/80+) in Metastases [4, 6]: 1.94 Percentage | TNFα, Percentage of TAM (CD11b+F4/80+) in Metastases [4, 6]: 8.85 Percentage | TAM population in metastases ([4]; two days after last treatment): reduces the TAM population

B1: TT856-1313 protein: purified non-toxic C-terminal fragment of tetanus toxoid, amino acid positions 856-1313 (protein, UniProt P04958 856-1313, looked up, fragment)
chain: STPIPFSYSKNLDCWVDNEEDIDVILKKSTILNLDINNDIISDISGFNSSVITYPDAQLVPGINGKAIHLVNNESSEVIVHKAMDIEYNDMFNNFTVSFWLRVPKVSASHLEQYGTNEYSIISSMKKHSLSIGSGWSVSLKGNNLIWTLKDSAGEVRQITFRDLPDKFNAYLANKWVFITITNDRLSSANLYINGVLMGSAEITGLGAIREDNNITLKLDRCNNNNQYVSIDKFRIFCKALNPKEIEKLYTSYLSITFLRDFWGNPLRYDTEYYLIPVASSSKDVQLKNITDYMYLTNAPSYTNGKLNIYYRRLYNGLKFIIKRYTPNNEIDSFVKSGDFIKLYVSYNNNEHIVGYPKDGNAFNNLDRILRVGYNAPGIPLYKKMEAVKLRDLKTYSVQLKLYDDKNASLGLVGTHNGQIGNDPNRDILIASNWYFNHLKDKILGCDWYFVPTDEGWT
CD8 T cell responses to immunodominant epitope [5]: CD8 T cells were activated
